Results on 1 compound are retold here after patent US12070444B2, “Modulation of molecular markers using S-equol” (Board of Regents, The University of Texas System, priority 2020, dated 2024).

“Also recorded” adds a separate entry of the source.

One data set has as its system rat hippocampal neurons. Conditions: cited from earlier work.
Another data set relates to TNBC. The data set can be described thus: Neoadjuvant window trial of S-equol in TNBC patients (Example 15). In kind it is in vivo, human. Further details: Cyclin D1 staining, median decrease: unit not given here. As for the experimental part: FIG. 35. Clinical trial with TNBC patients. A neoadjuvant window trial was performed on 39 enrolled patients with TNBC confirmed on diagnostic core needle biopsy. Cohort A (20 patients) received a daily dose of 50 mg BID and Cohort B (19 patients) received a higher dose of 150 mg BID for 10-21 days.
S-equol is a novel oral Estrogen Receptor (ER) Beta agonist with preclinical data showing suppression of TNBC cellular proliferation. A neoadjuvant window trial was performed on 39 enrolled patients with TNBC confirmed on diagnostic core needle biopsy. Cohort A (20 patients) received a daily dose of 50 mg BID and Cohort B (19 patients) received a higher dose of 150 mg BID for 10-21 days. (FIG. 35.) Paired biopsies were evaluable for 36 patients. Primary outcome was a change from pre- to post-treatment Ki-67 and secondary outcomes were included as correlative biomarkers. […] The average decrease in Ki-67 was 8% (P=0.00206, 95% CI−13.46 to −3.26).

For data set [1], the system named is AT3 mammary tumor cell line. The experiment in a line: AT3 mammary tumor challenge in mice treated with S-equol and/or anti-PD-1 antibody. In kind it is in vivo, mouse. As for the experimental part: The following three murine mammary tumor lines were tested to determine the effects of a PD-1 inhibitor, S-equol and a combination of the two therapies on tumor growth: (1) E0771 (B6 background), (2) AT-3 (B6 background), and (3) 4T1 (BalbC background). This experimental design includes four arms (using AT-3 as an example): (1) controls, (2) αPD-1, (3) S-equol, and (4) αPD-1+S-equol (FIG. 3) by injecting into mice 2×10^5 cells subcutaneously into the 4th mammary gland fat pad. Antibodies were administered α-PD-1: 200 μg/mice by i.p. injection every 3 days and S-equol was administered at 50 mg/kg/day by oral gavage. Treatment began 7 day after tumor challenge. Tumor growth trajectories were compared within treated mice using a repeated measures linear mixed model. The primary outcome was the logarithm of the tumor size, and the test statistic is the treatment×time interaction. Tumors were measured about 10 times. The number of recipient mice use used in the studies (n=8 per group) was based on the above study.
For tumor studies, 8 to 10-week-old mice were used. M-Wnt (5 Å˜10^5 cells), E0771 (5 Å˜10^5 cells), AT-3 (2 Å˜10^5 cells), and EMT-6 (5 Å˜10^5 cells) tumor cells were subcutaneously inoculated into the fourth mammary pad. B16F10 (0.5 Å˜10^6 cells) and MC38 (5 Å˜10^6 cells) tumor cells were subcutaneously inoculated into the back flank. Tumor volume was measured with calipers (0.5 Å˜length Å˜width2) on the indicated days. Anti-IgG2a (BioXcell, Cat: #BE0146) and anti-PD-1 (BioXcell, Cat: #BE0089) antibodies were administered through intraperitoneal (i.p.) injection at a dose of […] every 3 days starting on day 7 after tumor challenge for the duration as indicated. S-equol (from Ausio Pharmaceuticals) was administered daily by oral gavage at 50 mg/kg beginning on the day of tumor challenge and continuing throughout the entire tumor growth experiments.

For a further data set, the target named is T1, ERβ (Mus musculus, UniProt O08537).
T1 construct: endogenous in cells; b180 instead says mouse 'EF4' (probably EL4) lymphoma cells
The data set can be described thus: TCR activated ERβ tyrosine phosphorylation after anti-CD3/CD28 stimulation (IP-Western blot). In kind it is cell-based. Particulars: anti-CD3/CD28-stimulated cells, pretreated with S-equol for 4 hrs (FIG. 26A). An excerpt:
FIG. 26. ERβ agonist S-equol promotes CD8+ T cell activation and antitumor immunotherapy. […] FIGS. 26B and 26C show B16 melanoma growth and tumor weight from wild type C57BL/6J male mice with four arm treatments. Vehicle+α-IgG, 5-equol+α-IgG, Vehicle+α-PD-1, S-equol+α-PD-1. […] Vehicle+α-IgG, S-equol+α-IgG, Vehicle+α-PD-1, S-equol+α-PD-1. GSEA analysis in ERβ-high versus ERβ-low human melanoma TILs (tumor infiltrating lymphocytes). The enrichment of (FIG. 26F) NFAT pathway and (FIG. 26G) TNFα signaling were evaluated.
Cells were stained and sorted as previously described (Clark, 2016), using LSR II and FACSAria hardware and analyzed by FACSDiva (BD Bioscience) and FlowJo software (FlowJo, LLC). CD8+ T cell isolation and in vitro activationCD8+ T cells were isolated from the spleens under aseptic conditions. Individual spleens were homogenized to release splenocytes. […] Single-cell suspensions from individual spleens were pooled, filtered through 70 μm and 40 μm cell strainer (Fisher) and counted. […]
Isolated mouse spleen and bone marrow were lysed in RIPA Lysis and 218 Extraction Buffer. Protein amounts were determined by using Pierce BCA Protein Assay Kits (Pierce, Cat: #23225). […] Proteins were detected with ECL SuperSignal™ West Pico PLUS Chemiluminescent Substrate (Thermo Fisher, Cat. #34580).
(A western blot detects proteins with antibodies after separation by electrophoresis.)

Another data set has as its target T2, ERβ pY36 (Homo sapiens, UniProt Q92731).
T2 construct: host or cells: MDA-MB-231 (human TNBC cell line)
The data set can be described thus: pY36-specific phosphorylation signal of ERβ in MDA-MB-231 cells. In kind it is cell-based. Particulars: MDA-MB-231 cells (FIG. 16A). An excerpt:
FIG. 16. […] See, Yuan et al. (2016) listed below, which is incorporated by reference herein for all purposes.

T2 sequence (Q92731 whole entry): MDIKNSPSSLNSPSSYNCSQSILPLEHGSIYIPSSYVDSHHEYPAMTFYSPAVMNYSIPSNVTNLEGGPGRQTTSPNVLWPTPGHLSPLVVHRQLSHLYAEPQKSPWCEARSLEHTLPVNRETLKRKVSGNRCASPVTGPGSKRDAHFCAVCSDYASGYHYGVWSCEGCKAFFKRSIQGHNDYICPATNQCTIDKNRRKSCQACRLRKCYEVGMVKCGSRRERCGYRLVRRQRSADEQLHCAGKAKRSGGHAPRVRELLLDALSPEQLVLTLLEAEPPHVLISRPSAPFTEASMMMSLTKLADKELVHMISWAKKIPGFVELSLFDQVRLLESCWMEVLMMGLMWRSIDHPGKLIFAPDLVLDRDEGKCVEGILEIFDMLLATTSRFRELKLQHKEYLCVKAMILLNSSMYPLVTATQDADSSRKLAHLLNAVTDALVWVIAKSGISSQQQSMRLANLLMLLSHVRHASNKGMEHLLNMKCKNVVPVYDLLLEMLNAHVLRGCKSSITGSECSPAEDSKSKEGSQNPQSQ
T1 sequence (O08537 whole entry): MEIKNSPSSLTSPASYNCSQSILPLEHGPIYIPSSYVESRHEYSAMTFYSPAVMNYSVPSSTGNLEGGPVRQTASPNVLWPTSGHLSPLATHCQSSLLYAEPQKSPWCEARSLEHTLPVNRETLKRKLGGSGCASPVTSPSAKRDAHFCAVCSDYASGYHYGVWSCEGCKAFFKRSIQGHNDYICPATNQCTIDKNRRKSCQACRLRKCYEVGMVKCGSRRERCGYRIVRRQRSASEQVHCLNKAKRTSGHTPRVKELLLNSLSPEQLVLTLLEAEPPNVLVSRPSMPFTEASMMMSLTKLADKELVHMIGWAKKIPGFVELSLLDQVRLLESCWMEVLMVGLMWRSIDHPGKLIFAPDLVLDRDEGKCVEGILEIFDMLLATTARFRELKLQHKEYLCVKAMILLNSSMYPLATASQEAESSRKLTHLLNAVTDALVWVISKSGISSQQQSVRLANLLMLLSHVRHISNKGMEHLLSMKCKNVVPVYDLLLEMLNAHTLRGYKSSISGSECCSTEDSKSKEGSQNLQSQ

As for `Oc1ccc([C@H]2COc3cc(O)ccc3C2)cc1` [S-equol], the “respiratory and maximal glycolysis fluxes” value with rat hippocampal neurons was “increase”. For the same compound, the “mean posttreatment Ki-67” value with TNBC (36 evaluable patients, S-equol 50 mg BID or 150 mg BID for 10-21 days, mean pre-treatment Ki-67 68%) was 59%. Besides, the tolerability result in the data set with TNBC (oral, patients with TNBC) is given as “well tolerated”. The “proliferation as measured by Ki-67 (in words)” value in the data set on TNBC (patients with TNBC) is given as “inhibition of proliferation”. In addition, in the data set on TNBC (pre- and post-treatment paired tumor samples), the “change in CD3 or CD8 staining” value is “no significant change; also recorded: did not significantly change”. For the same compound, the “average decrease in Ki-67” value in the data set with TNBC (pre- to post-treatment, P=0.00206, 95% CI −13.46 to −3.26) was determined as 8%. Further, the “patients with a Ki-67 decrease of at least 20% from baseline” value with TNBC (share of the patients) came to 28%. Moreover, the “Cyclin D1 staining, median decrease” value in the data set on TNBC (with S-equol exposure, range −27.5-0.0) was 12.5. Also, in the data set with TNBC (with exposure to S-equol), the “ER-beta expression by IHC (in words)” value is “decreased” and the “cyclin D1 staining by IHC (in words)” value is “decreased”. In addition, the “ER Beta IHC expression, median decrease” value in the data set with TNBC (with exposure to S-equol, range −65.00 to −19.50) turned out to be 45%. Moreover, in data set [1] (AT3 (FIG. 12B)), the tumor weight entry is recorded as “reduce tumor weight compared to control”. The tumor size result in data set [1] (AT3, excised tumors (FIG. 12C)) is “reduce tumor size compared to control”. Besides, the tumor volume entry in data set [1] (AT3, anti-PD-1 200 μg every 3 days, S-equol 50 mg/kg per day, over 35 days post-challenge (FIG. 12A)) is listed as “reduce tumor volume compared to control”. In addition, the “TCR activated ERβ tyrosine phosphorylation” value on ERβ is recorded as “further enhanced”. In addition, at ERβ pY36, the pY36-specific phosphorylation signal entry was “enhanced”.
